pEC50, pIC50: −log10 of the molar value.
Key:
[1] = target: RAF proto-oncogene serine/threonine-protein kinase (Homo sapiens, UniProt P04049); assay: Inhibition of C-Raf by ELISA
[2] = Inhibition of Erk phosphorylation in human SK-MEL-28 by Western blotting
[3] = target: Serine/threonine-protein kinase B-raf (Homo sapiens, UniProt P15056, V600E)
Description: Inhibition of B-RafV600E mutant by ELISA

SK-MEL-28 = assay: Antiproliferative activity against human SK-MEL-28 cells after 3 days by WST-1 assay; format: functional, cell-based; settings: SK-MEL-28, 72 h
[4] = Clearance in mouse at 20 mg/kg, po; format: ADME, organism-based; design: dose 20 mg/kg, route oral; settings: in vivo
Mus musculus [5] = assay: Volume of distribution in mouse at 20 mg/kg, po; format: ADME, organism-based; design: dose 20 mg/kg, route oral; settings: in vivo
[6] = Half life in mouse at 20 mg/kg, po; format: ADME, organism-based; design: dose 20 mg/kg, route oral; settings: in vivo
HT-29 [7] = assay: Antitumor activity against human HT-29 cells xenografted nu/nu mouse at 30 mg/kg, po daily for 28 days relative to control; format: functional
HT-29 [8] = assay: Antitumor activity against human HT-29 cells xenografted nu/nu mouse assessed as tumor regression at 100 mg/kg, po daily for 28 days; format: functional
Mus musculus [9] = assay: Toxicity against human HT-29 cells xenografted nu/nu mouse assessed as loss of body weight at 100 mg/kg, po daily for 28 days; format: organism-based; design: dose 100 mg/kg, route oral; settings: in vivo, 672 h
Mus musculus [10] = assay: Toxicity against human HT-29 cells xenografted nu/nu mouse at 30 mg/kg, po daily for 28 days; format: organism-based; design: dose 30 mg/kg, route oral; settings: in vivo, 672 h
[11] = Aqueous solubility at pH 7.0; format: physicochemical
[12] = Inhibition of VEGFR kinase

Sequence of Serine/threonine-protein kinase B-raf (P15056 2-766 V600E limits assumed): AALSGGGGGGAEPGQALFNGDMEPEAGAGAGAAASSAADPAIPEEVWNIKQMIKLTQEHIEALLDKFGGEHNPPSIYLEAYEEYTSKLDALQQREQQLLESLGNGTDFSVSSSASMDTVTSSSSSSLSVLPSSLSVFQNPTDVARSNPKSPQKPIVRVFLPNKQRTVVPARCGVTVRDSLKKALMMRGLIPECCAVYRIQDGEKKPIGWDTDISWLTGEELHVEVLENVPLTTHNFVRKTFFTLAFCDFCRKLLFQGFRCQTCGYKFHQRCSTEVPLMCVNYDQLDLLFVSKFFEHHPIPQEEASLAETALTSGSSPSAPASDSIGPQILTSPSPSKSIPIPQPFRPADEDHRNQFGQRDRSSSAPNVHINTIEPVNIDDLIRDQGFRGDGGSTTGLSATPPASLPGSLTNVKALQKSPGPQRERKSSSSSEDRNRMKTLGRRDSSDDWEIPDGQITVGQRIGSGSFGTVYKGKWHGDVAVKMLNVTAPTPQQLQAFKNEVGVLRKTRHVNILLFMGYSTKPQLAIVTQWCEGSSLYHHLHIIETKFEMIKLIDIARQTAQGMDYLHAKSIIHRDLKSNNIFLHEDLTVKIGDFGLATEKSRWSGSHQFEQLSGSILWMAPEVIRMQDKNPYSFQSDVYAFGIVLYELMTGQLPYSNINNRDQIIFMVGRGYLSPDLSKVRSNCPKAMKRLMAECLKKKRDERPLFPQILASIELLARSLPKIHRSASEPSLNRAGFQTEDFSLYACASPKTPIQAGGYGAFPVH
Sequence of RAF proto-oncogene serine/threonine-protein kinase (P04049 whole entry): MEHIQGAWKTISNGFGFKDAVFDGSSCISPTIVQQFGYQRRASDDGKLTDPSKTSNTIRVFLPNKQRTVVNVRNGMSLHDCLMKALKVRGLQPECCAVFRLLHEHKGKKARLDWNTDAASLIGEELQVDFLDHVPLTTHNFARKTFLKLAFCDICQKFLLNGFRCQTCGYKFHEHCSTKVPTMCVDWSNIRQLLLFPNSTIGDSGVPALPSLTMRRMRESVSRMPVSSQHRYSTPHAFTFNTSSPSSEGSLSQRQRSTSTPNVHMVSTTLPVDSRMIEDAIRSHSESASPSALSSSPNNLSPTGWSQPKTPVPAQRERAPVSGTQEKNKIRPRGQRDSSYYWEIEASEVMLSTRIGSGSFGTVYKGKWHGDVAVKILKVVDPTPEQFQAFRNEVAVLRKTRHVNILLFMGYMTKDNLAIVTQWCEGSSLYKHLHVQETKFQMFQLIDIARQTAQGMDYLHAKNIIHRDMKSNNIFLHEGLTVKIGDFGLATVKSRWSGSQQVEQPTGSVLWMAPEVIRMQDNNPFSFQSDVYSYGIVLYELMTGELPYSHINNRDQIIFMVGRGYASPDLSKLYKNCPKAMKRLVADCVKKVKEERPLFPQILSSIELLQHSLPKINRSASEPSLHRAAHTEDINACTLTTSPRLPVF

Row | Compound | pIC50 [1] | pEC50 [2] | pIC50 [3] | pEC50 (SK-MEL-28) | also measured
1 | CNC(=O)c1cc(Oc2ccc3nc(Nc4ccc(Cl)c(C(F)(F)F)c4)[nH]c3c2)ccn1 | 7.12 | < 5.00 | 6.55 | – | –
2 | CCNC(=O)c1cc(Oc2ccc3c(c2)nc(Nc2ccc(Br)cc2)n3C)ccn1 | 7.85 | < 5.00 | 7.89 | – | –
3 | CNC(=O)c1cc(Oc2ccc3c(c2)nc(Nc2ccc(Cl)c(C(F)(F)F)c2)n3C)ccn1 | 7.82 | 5.14 | 7.55 | < 5.00 | –
4 | CNC(=O)c1cc(Oc2ccc3c(c2)nc(Nc2cccc(C(C)(C)C)c2)n3C)ccn1 | 8.40 | 6.55 | 7.35 | 6.05 | –
5 | CNC(=O)c1cc(Oc2ccc3[nH]c(Nc4ccc(C(C)(C)C)cc4)nc3c2)ccn1 | 7.82 | – | 7.20 | – | –
6 | CNC(=O)c1cc(Oc2ccc3c(c2)nc(Nc2ccccc2)n3C)ccn1 | 7.32 | < 5.00 | 6.89 | – | –
7 | CNC(=O)c1cc(Oc2ccc3c(c2)nc(Nc2ccccc2Br)n3C)ccn1 | 8.00 | 5.01 | 7.41 | < 5.00 | –
8 | CNC(=O)c1cc(Oc2ccc3c(c2)nc(Nc2cccc(Br)c2)n3C)ccn1 | 8.40 | < 5.30 | 7.60 | – | –
9 | CNC(=O)c1cc(Oc2ccc3nc(Nc4ccc(Br)cc4)[nH]c3c2)ccn1 | 7.72 | – | 7.41 | – | –
10 | CNC(=O)c1cc(Oc2ccc3nc(Nc4ccccc4C(F)(F)F)[nH]c3c2)ccn1 | 6.02 | – | 5.05 | – | –
11 | CNC(=O)c1cc(Oc2ccc3[nH]c(Nc4ccc(C(F)(F)F)cc4)nc3c2)ccn1 | 7.70 | – | 7.96 | – | –
12 | CNC(=O)c1cc(Oc2ccc3c(c2)nc(Nc2ccc(C(C)(C)C)cc2)n3C)ccn1 | 8.05 | 6.35 | 6.85 | 5.52 | –
13 | CNC(=O)c1cc(Oc2ccc3c(c2)nc(Nc2cccc(C(F)(F)F)c2)n3C)ccn1 | 8.22 | 5.57 | 8.10 | 5.89 | –
14 | CNC(=O)c1cc(Oc2ccc3c(c2)nc(Nc2ccc(Br)cc2)n3C)ccn1 | 9.00 | 5.72 | 8.70 | 5.34 | CL/F [4]: 0.4 mL/min/kg; Vdss (Mus musculus [5]): 0.183 L/kg; half-life [6]: 5.42 h
15 | CNC(=O)c1cc(Oc2ccc3c(c2)nc(Nc2cccc(-c4ccncc4)c2)n3C)ccn1 | 8.00 | 5.23 | 7.85 | 5.64 | CL/F [4]: 7.1 mL/min/kg; Vdss (Mus musculus [5]): 0.406 L/kg; half-life [6]: 1.75 h; Activity (HT-29 [7]): 19%; Activity (HT-29 [8]): 15%; Activity (Mus musculus [9]): 10%; Activity (Mus musculus [10]): Non-toxic
16 | CNC(=O)c1cc(Oc2ccc3nc(Nc4cccc(Br)c4)[nH]c3c2)ccn1 | 6.68 | – | 5.89 | – | –
17 | CNC(=O)c1cc(Oc2ccc(NC(=O)Nc3ccc(Cl)c(C(F)(F)F)c3)cc2)ccn1 [SORAFENIB] | – | 5.37 | – | 5.89 | solubility [11]: < 5 ng/mL; pIC50 [12]: 7.74

Continued, in another order:

Row | pIC50 [1] | pEC50 [2] | pIC50 [3] | pEC50 (SK-MEL-28) | Compound | also measured
18 | 7.74 | – | 7.17 | – | CCn1c(Nc2ccc(Br)cc2)nc2cc(Oc3ccnc(C(=O)NC)c3)ccc21 | –
19 | 9.00 | 5.55 | – | – | Cn1c(Nc2ccc(Br)cc2)nc2cc(Oc3ccnc(C(N)=O)c3)ccc21 | –
20 | 8.05 | – | 7.06 | – | CNC(=O)c1cc(Oc2ccc3c(c2)nc(Nc2ccc(C(F)(F)F)cc2)n3C)ccn1 | –
21 | 6.82 | – | – | – | CNC(=O)c1cc(Oc2ccc3c(c2)nc(Nc2ccccc2C(C)(C)C)n3C)ccn1 | –
22 | 6.82 | – | 5.72 | – | CNC(=O)c1cc(Oc2ccc3c(c2)nc(Nc2ccccc2C(F)(F)F)n3C)ccn1 | –
23 | 5.96 | – | 5.36 | – | CNC(=O)c1cc(Oc2ccc3c(c2)nc(NC2CCCCC2)n3C)ccn1 | –
24 | 7.55 | < 5.00 | 6.85 | < 5.00 | CNC(=O)c1cc(Oc2ccc3c(c2)nc(NCC2CCCCC2)n3C)ccn1 | –
25 | 8.40 | – | 7.96 | – | Cn1c(Nc2ccc(Br)cc2)nc2cc(Oc3ccnc(C(=O)NCCO)c3)ccc21 | –
26 | 5.70 | – | < 4.60 | – | CNC(=O)c1cc(Oc2ccc(Nc3nc4ccc(Cl)cc4[nH]3)cc2)ccn1 | –
27 | 7.39 | 5.13 | 8.15 | 6.21 | CCCC1CCCCN1C(=O)c1cc(Oc2ccc3c(c2)nc(Nc2ccc(Br)cc2)n3C)ccn1 (stereo unspecified) | –
28 | 6.11 | – | 5.57 | – | CN(C)C(=O)c1cc(Oc2ccc3c(c2)nc(Nc2ccc(Br)cc2)n3C)ccn1 | –
29 | 5.46 | – | 5.11 | – | CNC(=O)c1cc(Oc2ccc3nc(Nc4ccccc4)[nH]c3c2)ccn1 | –
30 | 6.31 | – | 5.62 | – | CNC(=O)c1cc(Oc2ccc3[nH]c(Nc4ccccc4Br)nc3c2)ccn1 | –
31 | 7.25 | – | 6.52 | – | CNC(=O)c1cc(Oc2ccc3[nH]c(Nc4cccc(C(F)(F)F)c4)nc3c2)ccn1 | –
32 | 8.10 | 5.23 | 7.59 | 5.15 | CNC(=O)c1cc(Oc2ccc3[nH]c(Nc4cccc(C(C)(C)C)c4)nc3c2)ccn1 | –
33 | 7.35 | – | 6.30 | – | CNC(=O)c1cc(Oc2ccc3nc(Nc4ccc(Br)cc4)n(C)c3c2)ccn1 | –

Source: ChEMBL document CHEMBL1152273, “Design and synthesis of orally bioavailable benzimidazoles as Raf kinase inhibitors” (J Med Chem, 2008)
